Reference: ChEMBL document CHEMBL1127015, “Centrally acting serotonergic and dopaminergic agents. 1. Synthesis and structure-activity relationships of 2,3,3a,4,5,9b-hexahydro-1H-benz[e]indole derivatives” (J Med Chem, 1993)

Experiments:
Mus musculus [1] = assay: Ability to stimulate dopaminergic systems by effect on locomotor activity in reserpinized mice when a dose of 3.6 micro mol/kg is administered intraperitoneally; format: functional
Mus musculus [2] = assay: Antagonism of apomorphine in reserpinized mice when a dose of 36 micro mol/kg is administered intraperitoneally; format: functional
Mus musculus [3] = assay: Antagonism of apomorphine in reserpinized mice when a dose of 3.6 micro mol/kg is administered intraperitoneally; format: functional
Mus musculus [4] = assay: Ability to stimulate dopaminergic systems by effect on locomotor activity in reserpinized mice when a dose of 36 micro mol/kg is administered intraperitoneally; format: functional
Mus musculus [5] = assay: Antagonism of apomorphine effects for 0-10 minutes in reserpinized mice following 0.4 umol/kg i.p.; format: functional; design: unit not given beside the values
Mus musculus [6] = assay: Antagonism of apomorphine for 0-10 minutes in reserpinized mice when a dose of 36 micro mol/kg is administered intraperitoneally; format: functional
Mus musculus [7] = assay: Antagonism of apomorphine effects in reserpinized mice following 0.4 umol/kg i.p.; format: functional
D(2) dopamine receptor [8] = target: T1, D(2) dopamine receptor (Rattus norvegicus, UniProt P61169); assay: Binding affinity against [3H]raclopride-labeled dopamine receptor D2 in rat striatum.; format: tissue-based
Mus musculus [9] = assay: Antagonism of apomorphine effects for 10-20 minutes in reserpinized mice following 0.4 umol/kg i.p.; format: functional
Mus musculus [10] = assay: Antagonism of apomorphine for 10-20 minutes in reserpinized mice when a dose of 3.6 micro mol/kg is administered intraperitoneally; format: functional
D(2) dopamine receptor [11] = target: T2, D(2) dopamine receptor (Homo sapiens, UniProt P14416); assay: Intrinsic activity from GTP shift using membranes from CHO cells transfected with mammalian dopamine receptor D2.; format: cell membranes
Rattus norvegicus [12] = assay: Inhibition of firing rates of dopaminergic neurons in the substantia nigra pars compacta by intravenous injection in rats; format: functional
Mus musculus [13] = assay: Antagonism of apomorphine for 0-10 minutes in reserpinized mice when a dose of 3.6 micro mol/kg is administered intraperitoneally; format: functional
Rattus norvegicus [14] = assay: Inhibition of firing rates of serotonergic neurons in the substantia nigra pars compacta by intravenous injection in rats.; format: functional
Mus musculus [15] = assay: Antagonism of apomorphine for 10-20 minutes in reserpinized mice when a dose of 36 micro mol/kg is administered intraperitoneally; format: functional
Mus musculus [16] = assay: Increase in locomotor activity in reserpinized mice following 0.4 umol/kg i.p.; format: functional
Mus musculus [17] = assay: Antagonism of apomorphine in reserpinized mice when a dose of 3.5 micro mol/kg is administered intraperitoneally; format: functional
Mus musculus [18] = assay: Antagonism of apomorphine for 0-10 minutes in reserpinized mice when a dose of 3.5 micro mol/kg is administered intraperitoneally; format: functional
Mus musculus [19] = assay: Antagonism of apomorphine for 10-20 minutes in reserpinized mice when a dose of 35 micro mol/kg is administered intraperitoneally; format: functional
Mus musculus [20] = assay: Ability to stimulate dopaminergic systems by effect on locomotor activity in reserpinized mice when a dose of 3.5 micro mol/kg is administered intraperitoneally; format: functional
Mus musculus [21] = assay: Antagonism of apomorphine for 0-10 minutes in reserpinized mice when a dose of 35 micro mol/kg is administered intraperitoneally; format: functional
Mus musculus [22] = assay: Antagonism of apomorphine for 10-20 minutes in reserpinized mice when a dose of 3.5 micro mol/kg is administered intraperitoneally; format: functional
Mus musculus [23] = assay: Antagonism of apomorphine in reserpinized mice when a dose of 35 micro mol/kg is administered intraperitoneally; format: functional
D(2) dopamine receptor [24] = target: T2, D(2) dopamine receptor; assay: Compound was evaluated for the intrinsic activity from GTP shift against dopamine receptor D2; format: functional
Mus musculus [25] = assay: Ability to stimulate dopaminergic systems by effect on locomotor activity in reserpinized mice when a dose of 35 micro mol/kg is administered intraperitoneally; format: functional
D(2) dopamine receptor [26] = target: T2, D(2) dopamine receptor; assay: Compound was evaluated for the binding affinity against [3H]U-86,170-labeled dopamine receptor D2 in cloned CHO cells; format: cell-based
Mus musculus [27] = assay: Time of effect in the isolation-induced aggression behavioral assay in the mouse when a dose of 10 micro mol/kg is administered intraperitoneally; format: functional
Mus musculus [28] = assay: Time of effect in the isolation-induced aggression behavioral assay in the mouse when a dose of 3.4 micro mol/kg is administered intraperitoneally; format: functional
Mus musculus [29] = assay: Effective dose on hypothermia in mouse when administered through peroral route; format: functional; settings: po
Mus musculus [30] = assay: Effective dose on hypothermia in mouse when administered subcutaneously; format: functional; settings: sc
Felis catus [31] = assay: Maximum decrease of arterial blood pressure at sympathetic nerve activity (SND) in anesthetized cat has been observed following 1 mg/kg dose; format: functional; design: scale not given: the % may be the effect or the level left
Mus musculus [32] = assay: Time of effect in the face-to-face behavioral assay in the mouse when a dose of 0.0 micro mol/kg is administered subcutaneously; format: functional
Rattus norvegicus [33] = assay: Inhibition of firing rates of dopaminergic neurons in the substantia nigra pars compacta by intravenous injection in rats.; format: functional; settings: Rattus norvegicus, Substantia nigra pars compacta, iv; read-out: ED50
D(2) dopamine receptor [34] = target: T1, D(2) dopamine receptor; assay: Inhibitory concentration against [3H]raclopride-labeled dopamine receptor D2 in rat striatum; format: tissue-based
Mus musculus [35] = assay: Time of effect in the face-to-face behavioral assay in the mouse when a dose of 34 micro mol/kg is administered subcutaneously; format: functional
Rattus norvegicus [36] = assay: Inhibition of firing rates of serotonergic neurons in the dorsal raphe nucleus by intravenous injection in rats.; format: functional
Felis catus [37] = assay: Maximum decrease of sympathetic nerve activity (SND) in anesthetized cat has been expressed as percent control; format: functional; design: scale not given: the % may be the effect or the level left
Mus musculus [38] = assay: Maximum decrease in temperature when compound is administered subcutaneously; format: functional
Mus musculus [39] = assay: Maximum decrease in temperature when compound is administered through peroral route; format: functional
Mus musculus [40] = assay: Antagonism of apomorphine in reserpinized mice when a dose of 37 micro mol/kg is administered intraperitoneally; format: functional
D(2) dopamine receptor [41] = target: T2, D(2) dopamine receptor; assay: Binding affinity against [3H]U-86,170-labeled dopamine receptor D2 in cloned CHO cells; format: cell-based
Mus musculus [42] = assay: Antagonism of apomorphine for 10-20 minutes in reserpinized mice when a dose of 37 micro mol/kg is administered intraperitoneally; format: functional
Mus musculus [43] = assay: Antagonism of apomorphine for 0-10 minutes in reserpinized mice when a dose of 37 micro mol/kg is administered intraperitoneally; format: functional
Mus musculus [44] = assay: Ability to stimulate dopaminergic systems by effect on locomotor activity in reserpinized mice when a dose of 3.7 micro mol/kg is administered intraperitoneally; format: functional
Mus musculus [45] = assay: Antagonism of apomorphine for 10-20 minutes in reserpinized mice when a dose of 3.7 micro mol/kg is administered intraperitoneally; format: functional
Mus musculus [46] = assay: Ability to stimulate dopaminergic systems by effect on locomotor activity in reserpinized mice when a dose of 37 micro mol/kg is administered intraperitoneally; format: functional
Mus musculus [47] = assay: Antagonism of apomorphine in reserpinized mice when a dose of 3.7 micro mol/kg is administered intraperitoneally; format: functional
Mus musculus [48] = assay: Antagonism of apomorphine for 0-10 minutes in reserpinized mice when a dose of 3.7 micro mol/kg is administered intraperitoneally; format: functional
Rattus norvegicus [49] = species: Rattus norvegicus; assay: Effect on the synthesis rates of serotonin (5-HTP accumulation) in the rat ventral limbic brain region at 10.6uMkg.; format: functional, Limbic system
Rattus norvegicus [50] = species: Rattus norvegicus; assay: Effect on the synthesis rates of serotonin (5-HTP accumulation) in the rat ventral limbic brain region at 10.6uMkg; format: functional, Limbic system

T2 sequence (P14416 whole entry): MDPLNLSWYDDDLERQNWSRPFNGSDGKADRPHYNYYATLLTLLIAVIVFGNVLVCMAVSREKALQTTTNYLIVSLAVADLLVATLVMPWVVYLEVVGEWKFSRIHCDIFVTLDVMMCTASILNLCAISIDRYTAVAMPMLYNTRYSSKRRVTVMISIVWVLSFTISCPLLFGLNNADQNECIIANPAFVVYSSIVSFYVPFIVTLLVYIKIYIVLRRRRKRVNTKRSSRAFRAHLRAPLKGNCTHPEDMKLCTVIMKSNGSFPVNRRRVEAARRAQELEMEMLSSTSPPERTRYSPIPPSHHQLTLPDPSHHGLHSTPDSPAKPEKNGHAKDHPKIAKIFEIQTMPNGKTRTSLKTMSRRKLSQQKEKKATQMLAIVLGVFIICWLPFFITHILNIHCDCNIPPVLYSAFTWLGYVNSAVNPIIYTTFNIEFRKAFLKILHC
T1 sequence (P61169 whole entry): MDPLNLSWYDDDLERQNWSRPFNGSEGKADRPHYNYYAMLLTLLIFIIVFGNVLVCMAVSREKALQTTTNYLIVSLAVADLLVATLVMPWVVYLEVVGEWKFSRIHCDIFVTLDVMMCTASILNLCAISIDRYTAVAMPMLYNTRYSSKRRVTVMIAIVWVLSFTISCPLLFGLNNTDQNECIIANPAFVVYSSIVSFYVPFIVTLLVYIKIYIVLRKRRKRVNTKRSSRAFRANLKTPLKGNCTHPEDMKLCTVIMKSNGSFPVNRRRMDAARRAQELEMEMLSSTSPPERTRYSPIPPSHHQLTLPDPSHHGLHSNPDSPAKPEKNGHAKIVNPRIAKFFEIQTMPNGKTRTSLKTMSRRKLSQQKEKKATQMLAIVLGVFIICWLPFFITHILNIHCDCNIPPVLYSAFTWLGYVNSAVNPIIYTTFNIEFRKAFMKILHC

With `C=CCN1CC[C@H]2c3cccc(OC)c3CC[C@H]21` the Locomotor activity (Mus musculus [1]) was 5, the Locomotor activity (Mus musculus [2]) was 21 and the Locomotor activity (Mus musculus [3]) was 62. For the same compound, the Locomotor activity (Mus musculus [4]) was 3, the Locomotor activity (Mus musculus [5]) was 164 and the Locomotor activity (Mus musculus [6]) was 52. For the same compound, the Locomotor activity (Mus musculus [7]) was 78, the Ki (D(2) dopamine receptor [8]) was 25 nM and the Locomotor activity (Mus musculus [9]) was 120. For the same compound, the Locomotor activity (Mus musculus [10]) was 105, the Intrinsic activity (D(2) dopamine receptor [11]) was 0% and the ED50 (Rattus norvegicus [12]) was 0.91 µmol/kg. For the same compound, the Locomotor activity (Mus musculus [13]) was 130, the ED50 (Rattus norvegicus [14]) was 0.24 µmol/kg and the Locomotor activity (Mus musculus [15]) was 38. The Locomotor activity (Mus musculus [16]) was 17.

In the case of `CCCN1CC[C@H]2c3c(cccc3OC)CC[C@H]21`, the Locomotor activity (Mus musculus [17]) is reported as 6, the Locomotor activity (Mus musculus [18]) is reported as 72 and the Locomotor activity (Mus musculus [19]) is reported as 51. It also gave a Locomotor activity (Mus musculus [20]) of 36, a Locomotor activity (Mus musculus [21]) of 49 and a Locomotor activity (Mus musculus [5]) of 60. The Locomotor activity (Mus musculus [7]) was 41, the Ki (D(2) dopamine receptor [8]) was 67 nM and the Locomotor activity (Mus musculus [9]) was 93. It also gave a Locomotor activity (Mus musculus [22]) of 67, a Locomotor activity (Mus musculus [23]) of 9 and an Intinsic activity (D(2) dopamine receptor [24]) of 37%. It also gave a Locomotor activity (Mus musculus [25]) of 69 and a Locomotor activity (Mus musculus [16]) of 19.

`COc1cccc2c1C1CCN(CCc3ccccc3)[C@H]1CC2` (some centres not stated) was tested, and the Ki (D(2) dopamine receptor [26]) was 392 nM.

With `CCCN1[C@H](C)CC2c3c(cccc3OC)CC[C@H]21` (mixture of isomers) the Time (Mus musculus [27]) was 8 s, the Time (Mus musculus [28]) was 17 s and the ED50 (Mus musculus [29]) was 104 µmol/kg. It also gave an ED50 (Mus musculus [30]) of 19 µmol/kg, a Control (Felis catus [31]) of 65% and a Time (Mus musculus [32]) of 0.6 s. It also gave an ED50 (Rattus norvegicus [33]) of 1.7 µmol/kg, an IC50 (D(2) dopamine receptor [34]) greater than 1000 nM and a Time (Mus musculus [35]) of 1.5 s. For the same compound, the ED50 (Rattus norvegicus [36]) was 0.1 µmol/kg, the Control (Felis catus [37]) was 250% and the Max temperature decrease (Mus musculus [38]) was 5.2. For the same compound, the Max temperature decrease (Mus musculus [39]) was 2.4.

Work on `CCCN1CC[C@@H]2c3cccc(O)c3CC[C@H]21` (racemic) yielded a Locomotor activity (Mus musculus [40]) of 4, a Ki (D(2) dopamine receptor [41]) of 93 nM and a Locomotor activity (Mus musculus [42]) of 5. It also gave a Locomotor activity (Mus musculus [43]) of 6, a Locomotor activity (Mus musculus [44]) of 2 and a Locomotor activity (Mus musculus [45]) of 47. It also gave an ED50 (Rattus norvegicus [33]) of 0.43 µmol/kg, a Locomotor activity (Mus musculus [5]) of 54 and a Locomotor activity (Mus musculus [7]) of 72. It also gave a Ki (D(2) dopamine receptor [8]) of 33 nM, a Locomotor activity (Mus musculus [9]) of 86 and an Intrinsic activity (D(2) dopamine receptor [11]) of 28%. The Locomotor activity (Mus musculus [46]) was 162, the Locomotor activity (Mus musculus [47]) was 46 and the Locomotor activity (Mus musculus [48]) was 34. The Locomotor activity (Mus musculus [16]) was 63.

`CCCN1CC[C@H]2c3cccc(OC)c3CC[C@H]21` (racemic) was tested, and the Control (Rattus norvegicus [49]) was 34% and the Control (Rattus norvegicus [50]) was 7%.
